{"source": "patent US20100015079A1", "about": "“Cosmetic Compositions for the Protection or Regeneration of Hair or Skin” (Institut Dr. Schrader, priority 2006, published 2010)", "experiment": "UVA-induced photon emission (chemiluminescence, ICL-H) of permanently waved hair tresses after treatment with rinse-off formulation", "set-up": "species or system human", "details": "Example 1; for UVA-induced photon emission (chemiluminescence), measure of hair damage: measured two days after treatment, damage by permanent wave alone 555%", "experimental": "The effect of taurinamide hydrochloride on the regeneration of permanently waved hair was investigated. For this, three tresses of European hair (left natural, dense, color 7.0; Kerling) were subjected to a permanent wave treatment. The permanent wave solution had the following composition:\nThe tresses were washed for 1 min in a shaking machine (13.5% Texapon K12P in demineralized water) and rinsed for 2 minutes with lukewarm water. The tresses were saturated with permanent waving solution until drop-wet (10 ml for 3 tresses). After a contact time of 30 minutes, they were rinsed for 3 minutes with lukewarm water. The treatment with the permanent waving solution was repeated three times. The drop-wet tresses were then saturated with neutralizing solution (10 ml for 3 tresses). After a contact time of 10 minutes, they were rinsed for 3 minutes with lukewarm water.\nTo determine the effect of taurinamide, the following rinse-off formulations which comprised varying amounts of taurinamide hydrochloride were used:\nThe formulations were applied to the tresses from both sides using a paint brush on a glass plate (30 g for 3 tresses). After a contact time of 10 minutes, they were rinsed for 3 minutes with lukewarm water. The hair was then left to dry in the air.\nTwo days after the treatment, the UVA-induced photon emission (chemiluminescence) was measured. The photon emission is a measure of the hair damage. It was measured in accordance with the method described by S. Benard, H. Nerenz, M. Rohr and A. Schrader in IFSCC magazine Vol. 4 (2001), 185-189 (ICL-H (Induced Chemiluminescence of Human Hair) A new method for quantitative analysis of hair stress)."}
{"smiles": "Cl.NCCS(N)(=O)=O", "note": "[Taurinamide, taurinamide hydrochloride]", "values": [{"measurement": "UVA-induced photon emission (chemiluminescence), measure of hair damage", "setting": "0.1% by wt. taurinamide HCl rinse-off formulation 1.1, 10 min contact", "value": 329, "unit": "%"}, {"measurement": "UVA-induced photon emission (chemiluminescence), measure of hair damage", "setting": "0.5% by wt. taurinamide HCl rinse-off formulation 1.2, 10 min contact", "value": 209, "unit": "%"}, {"measurement": "UVA-induced photon emission (chemiluminescence), measure of hair damage", "setting": "1% by wt. taurinamide HCl rinse-off formulation 1.3, 10 min contact", "value": 185, "unit": "%"}, {"measurement": "UVA-induced photon emission (chemiluminescence), measure of hair damage", "setting": "5% by wt. taurinamide HCl rinse-off formulation 1.4, 10 min contact", "value": 118, "unit": "%"}, {"measurement": "effect of treatment on hair damage (in words)", "setting": "permanently waved hair, 0.1-5% taurinamide formulations", "value": "significantly reduces hair damage"}]}
